Key:
[1] = Stability study on storage (25° C. ± 2° C./60% ± 5% RH) for 3 months
Description: The complete x-ray powder spectrum, which was recorded with a Rigaku multifelx 2.0 Kilowatt X-ray powder diffractometer model using copper radiation. The X-ray diffraction pattern was recorded by keeping the instrument parameters listed below:
i) X-ray: Cu/40 kv/30 mA, Diverging slit: 1°, Scattering slit: 1°, Receiving slit: 0.15 mm, Monochromator RS: 0.8 mm, Counter: Scintillation counters;
Scan mode: Continuous, Scan speed: 4.000 deg./min., Sampling width: 0.010°,
Scan axes: 2 theta vs CPS, Scan range: 4° to 40.0°, Theta offset: 0.000.
iv) (2R)-4-oxo-4-[3-(trifluoromethyl)-5,6-dihydro[1,2,4]-triazolo[4,3-a]pyrazin-7(8H)-yl]-1-(2,4,5-trifluorophenyl)butan-2-amine and its salts were analyzed for purity by analytical HPLC at λmax 210 nm using column YMC-C8, 250 mm×4.6 mm×4 mm or its equivalent on AGILENT 1100 series under the following conditions, Detector: UV absorption photometer Wave length: 210 nm Column temp.: 25° C. Flow rate: 1.0 mL/min. Injection Vol.: 10 μL Mobile Phase: 10 mM KH2PO4 (pH-6.8): Acetonitrile (55:45) (2R)-4-oxo-4-[3-(trifluoromethyl)-5,6-dihydro[1,2,4]-triazolo[4,3-a]pyrazin-7(8H)-yl]-1-(2,4,5-trifluorophenyl)butan-2-amine and its salts were analyzed for chiral purity by HPLC at λmax 268 nm using column Chiral-Cel OJ-H, 250 mm×4.6 mm×5μ or its equivalent on Shimadzu LCVP model under the following conditions, Detector: UV absorption photometer Wave length: 268 nm Column temp.: 35° C. Flow rate: 0.8 mL/min.

male C57BLKS/J mice = assay: Oral glucose tolerance test (OGTT) in male C57 mice; type: in vivo; conditions: for % change in AUC glucose: single dose 10 mg/kg PO with glucose load 3 g/kg, male C57 mice fasted 18 h, AUC for 120 min, vs vehicle control; for efficacy compared with crystalline monohydrate phosphate salt (SP): acute oral glucose tolerance test in C57 mice, 10 mg/kg PO
Description: Eight to ten weeks old male C57BLKS/J mice obtained from Animal Research Facility of Zydus Research Centre were used. The mice were allowed ad libitum access to chow and water. Animals were on a 12-hour light, 12-hour dark cycle. Protocol for use of animals for conducting this study has been reviewed and approved by Institutional Animal Ethics Committee (IAEC).
Oral glucose tolerance test (OGTT) was performed on these animals. The mice were deprived of food for 18 h and then drug or vehicles were administered with a glucose load (3 g/kg) by oral route. Blood (200 μL) samples were collected at 0, 30, 60, 120 and 240 min. Serum glucose concentrations were determined using commercially available kits purchased from RFCL (New Delhi, India) using spectrophotometric assay. […] The area under the curve for 120 min was calculated, based on which the percentage inhibition was obtained for each treatment.

[2] = Stability of the novel salts versus free base (statement, no method given); type: physicochemical; conditions: compared with the free base; no conditions given
[3] = After 3 Month storage at 25° C. ± 2° C./60% ± 5% RH
[4] = After 3 Month storage at 25° C. ± 2° C./60% ± 5% RH, listed as besylate crystalline(II)
[5] = Initial, listed as besylate crystalline(II)
[6] = After 3 Month storage at 25° C. ± 2° C./60% ± 5% RH, listed as besylate amorphous
[7] = Initial, listed as besylate amorphous

Cl.N[C@@H](CC(=O)N1CCn2c(nnc2C(F)(F)F)C1)Cc1cc(F)c(F)cc1F [Hydrochloride crystalline, hydrochloride salt of (2R)-4-oxo-4-[3-(trifluoromethyl)-5,6-dihydro[1,2,4]triazolo[4,3-a]pyrazin-7(8H)-yl]-1-(2,4,5-trifluorophenyl)butan-2-amine]
Description [1, 3]: white colored powder
Polymorphism XRD [1, 3]: No Change
Purity (By HPLC) [1, 3]: 99.91%
Water (by KFR) [1, 3]: 4.01%
Description ([1]; Initial): white colored powder
Polymorphism XRD ([1]; Initial): Crystalline pattern
Purity (By HPLC) ([1]; Initial): 99.82%
Water (by KFR) ([1]; Initial): 3.54%

N[C@@H](CC(=O)N1CCn2c(nnc2C(F)(F)F)C1)Cc1cc(F)c(F)cc1F [SB, (2R)-4-oxo-4-[3-(trifluoromethyl)-5,6-dihydro[1,2,4]triazolo[4,3-a]pyrazin-7(8H)-yl]-1-(2,4,5-trifluorophenyl)butan-2-amine, reference compound]
% change in AUC glucose (male C57BLKS/J mice): −36.5 ± 1.6%

N[C@@H](CC(=O)N1CCn2c(nnc2C(F)(F)F)C1)Cc1cc(F)c(F)cc1F.O=S(=O)(O)c1ccccc1 [SBII, crystalline besylate salt(II) of (2R)-4-oxo-4-[3-(trifluoromethyl)-5,6-dihydro[1,2,4]triazolo[4,3-a]pyrazin-7(8H)-yl]-1-(2,4,5-trifluorophenyl)butan-2-amine]
efficacy compared with crystalline monohydrate phosphate salt (SP) (male C57BLKS/J mice): better than
% change in AUC glucose (male C57BLKS/J mice; 10 mg/kg): −45.7 ± 1.5%
Polymorphism XRD [1, 3]: No Change
Description [1, 4]: Off white colored
Purity (By HPLC) [1, 4]: 99.97%
Water (by KFR) [1, 4]: 2.90%
Description ([1]; Initial): white colored powder
Polymorphism XRD [1, 5]: Crystalline pattern
Purity (By HPLC) [1, 5]: 99.87%
Water (by KFR) [1, 5]: 2.77%

N[C@@H](CC(=O)N1CCn2c(nnc2C(F)(F)F)C1)Cc1cc(F)c(F)cc1F.O=S(=O)(O)c1ccccc1 [SBa, amorphous besylate salt of (2R)-4-oxo-4-[3-(trifluoromethyl)-5,6-dihydro[1,2,4]triazolo[4,3-a]pyrazin-7(8H)-yl]-1-(2,4,5-trifluorophenyl)butan-2-amine]
efficacy compared with crystalline monohydrate phosphate salt (SP) (male C57BLKS/J mice): better than
% change in AUC glucose (male C57BLKS/J mice; 10 mg/kg): −43.3 ± 1.6%
Polymorphism XRD [1, 3]: No Change
Description [1, 6]: white colored powder
Purity (By HPLC) [1, 6]: 99.52%
Water (by KFR) [1, 6]: 3.14%
Description ([1]; Initial): white colored powder
Polymorphism XRD [1, 7]: amorphous pattern
Purity (By HPLC) [1, 7]: 99.41%
Water (by KFR) [1, 7]: 1.01%

N[C@@H](CC(=O)N1CCn2c(nnc2C(F)(F)F)C1)Cc1cc(F)c(F)cc1F.O=P(O)(O)O [SP, (2R)-4-oxo-4-[3-(trifluoromethyl)-5,6-dihydro[1,2,4]triazolo[4,3-a]pyrazin-7(8H)-yl]-1-(2,4,5-trifluorophenyl)butan-2-amine phosphate salt, reference compound]
% change in AUC glucose (male C57BLKS/J mice): −31.9 ± 1.8%

N[C@@H](CC(=O)N1CCn2c(nnc2C(F)(F)F)C1)Cc1cc(F)c(F)cc1F.O=C(O)C(F)(F)F [TFA salt, Trifluoroacetic acid salt of (2R)-4-oxo-4-[3-(trifluoromethyl)-5,6-dihydro[1,2,4]triazolo[4,3-a]pyrazin-7(8H)-yl]-1-(2,4,5-trifluorophenyl)butan-2-amine]
Description [1, 3]: white colored powder
Polymorphism XRD [1, 3]: No Change
Purity (By HPLC) [1, 3]: 97.5%
Water (by KFR) [1, 3]: 3.45%
Description ([1]; Initial): white colored powder
Polymorphism XRD ([1]; Initial): Crystalline pattern
Purity (By HPLC) ([1]; Initial): 97.89%
Water (by KFR) ([1]; Initial): 2.77%

N[C@@H](CC(=O)N1CCn2c(nnc2C(F)(F)F)C1)Cc1cc(F)c(F)cc1F.O=C(O)CCCCC(=O)O [adipate, adipic acid salt of (2R)-4-oxo-4-[3-(trifluoromethyl)-5,6-dihydro[1,2,4]triazolo[4,3-a]pyrazin-7(8H)-yl]-1-(2,4,5-trifluorophenyl)butan-2-amine]
stability of the salt [2]: very stable

(2R)-4-oxo-4-[3-(trifluoromethyl)-5,6-dihydro[1,2,4]triazolo[4,3-a]pyrazin-7(8H)-yl]-1-(2,4,5-trifluorophenyl)butan-2-amine gentisate [SG]
stability of the salt [2]: very stable
efficacy compared with crystalline monohydrate phosphate salt (SP) (male C57BLKS/J mice): better than
% change in AUC glucose (male C57BLKS/J mice): −39.4 ± 1.8%

Source: patent publication US9108972B2, “Salts of DPP-IV inhibitor” (Cadila Healthcare Limited, priority 2011, dated 2015)
